Results on 24 compounds are retold here after patent US4213998A, “Inhibition of lipogenesis” (Shell Oil Company, priority 1979, dated 1980).

The experiment relates to swine adipose tissue. Description: Inhibition of lipogenesis (incorporation of 14C-glucose into lipid) in swine adipose tissue slices. The format is cell-based. Particulars: Sus scrofa, 100 micrograms per milliliter, 37° C., 2 hours, glucose-U-14C, insulin, 5% DMSO, triplicate, read-out: Percent Inhibition of lipogenesis compared to control. An excerpt: The manner in which they cause this effect is not known with certainty; it is believed that they interfere with the synthesis of fatty acids in the tissues. Their effectiveness for this purpose has been ascertained by immersing sales of swine adipose tissue in a liquid medium containing radioactive glucose and the test chemical for a period of time, then isolating the lipid from the treated tissue and determining the incorporation of the radioactive carbon into lipid by means of scintillation counting techniques. These tests were conducted in swine adipose tissues because in swine, the primary site of lipogenesis--i.e., fatty acid synthesis--appears to be adipose tissue.
Described in more detail, the tests were conducted according to the following general procedure:
150 milligrams of slices of swine adipose tissue were incubated at 37° C. for 2 hours with shaking in 3 milliliters of Krebs-Ringer bicarbonate solution containing one-half the normal calcium ion concentration, 60 micromoles of glucose, 0.5 micro-Curie of glucose-U^14 C, and 300 microunits of insulin, and 5% dimethylsulfoxide (DMSO). The test compounds were added as a solution or suspension in DMSO and were present at a concentration of 100 micrograms per milliliter of the incubation mixture.
The incubation was terminated by addition of 0.25 milliliter of 1 N sulfuric acid. The resulting mixture was extracted with a total of 25 milliliters of chloroform/methanol (2:1 v/v). The extracts were washed according to Folch et al. (J. Biol. Chem. 226, 497-509, (1957)), air dried, and counted in a liquid scintillation counter with 15 milliliters of counting fluid (two parts toluene containing 0.4% w/v New England Nuclear Omnifluor/1part Triton X-100). The tests were conducted in triplicate and were accompanied by control tests in which all ingredients,proportions and conditions were the same except that no test compound was included. From the data obtained were calculated the precent inhibition of lipid synthesis by the test compounds in each case. The data obtained from the tests are set out in Table 1,as the percent inhibition of lipogenesis compared to the results obtained in the control tests wherein only the test compound was omitted.
On to `O=C(O)c1cc2cc(-c3ccccc3)ccc2o1` [Compound 1, 5-phenyl-2-benzofurancarboxylic acid], for which the inhibition at 100 µg/mL came to 49%.

As to `O=C(O)C1Cc2cc(-c3ccccc3)ccc2O1` (stereo not drawn) [Compound 2, 2,3-dihydro-5-phenyl-2-benzofurancarboxylic acid], the inhibition at 100 µg/mL worked out at 50%.

As to `CCC(C)c1ccc2oc(C(=O)O)cc2c1` (stereo not drawn) [Compound 3], the inhibition at 100 µg/mL turned out to be 64%.

Regarding `O=C(O)c1cc2cc(C3CCCCC3)ccc2o1` [Compound 4], the inhibition at 100 µg/mL was determined as 91%.

As to `O=C(O)c1cc2ccc(Oc3ccccc3)cc2o1` [Compound 5], the inhibition at 100 µg/mL is 86%.

With `O=C(c1ccccc1)c1ccc2oc(C(=O)O)cc2c1` [Compound 6], the inhibition at 100 µg/mL amounted to 44%.

In the case of `CCCCCCOc1ccc2oc(C(=O)O)cc2c1` [Compound 7], the inhibition at 100 µg/mL was determined as 78%.

Take `O=C(O)c1cc2cc(Cc3ccccc3)ccc2o1` [Compound 8]: the inhibition at 100 µg/mL amounted to 87%.

With `O=C(O)c1cc2c(Oc3ccccc3)cccc2o1` [Compound 9, 4-phenoxy-2-benzofurancarboxylic acid], the inhibition at 100 µg/mL is 83%.

In the case of `CC(=O)c1ccc(-c2ccc3oc(C(=O)O)cc3c2)cc1` [Compound 10, 5-(4-acetylphenyl)-2-benzofurancarboxylic acid], the inhibition at 100 µg/mL is 41%.

Consider `CC(=O)Oc1ccc(-c2ccc3oc(C(=O)O)cc3c2)cc1` [Compound 11, 5-(4-(acetyloxy)phenyl)-2-benzofurancarboxylic acid], for which the inhibition at 100 µg/mL was determined as 80%.

Turning to `O=C(O)c1cc2cc(-c3ccc(Cl)cc3)ccc2o1` [Compound 12, 5-(4-chlorophenyl)-2-benzofurancarboxylic acid], the inhibition at 100 µg/mL amounted to 55%.

As to `COc1cccc2cc(C(=O)O)oc12` [Compound 13], the inhibition at 100 µg/mL was 22%.

For `COc1ccc2cc(C(=O)O)oc2c1OC` [Compound 14], the inhibition at 100 µg/mL was 24%.

Regarding `O=C(O)c1cc2cccc(Cl)c2o1` [Compound 15], the inhibition at 100 µg/mL is 59%.

On to `O=C(O)c1cc2cc(-c3ccc(O)cc3)ccc2o1` [Compound 16, 5-(4-hydroxyphenyl)-2-benzofurancarboxylic acid], for which the inhibition at 100 µg/mL worked out at 30%.

Turning to `COc1ccc(-c2ccc3oc(C(=O)O)cc3c2)cc1` [Compound 17, 5-(4-methoxyphenyl)-2-benzofurancarboxylic acid], the inhibition at 100 µg/mL was 56%.

For the compound `CCC(C)c1ccc2c(c1)CC(C(=O)O)O2` (stereo not drawn) [Compound 18], the inhibition at 100 µg/mL was 35%.

Consider `O=C(O)C1Cc2cc(C3CCCCC3)ccc2O1` (stereo not drawn) [Compound 19], for which the inhibition at 100 µg/mL came to 72%.

In the case of `O=C(O)C1Cc2cc(Cc3ccccc3)ccc2O1` (stereo not drawn) [Compound 20], the inhibition at 100 µg/mL was 40%.

With `CCCCCCOc1ccc2c(c1)CC(C(=O)O)O2` (stereo not drawn) [Compound 21], the inhibition at 100 µg/mL is 49%.

For `O=C(O)C1Cc2ccc(Oc3ccccc3)cc2O1` (stereo not drawn) [Compound 22], the inhibition at 100 µg/mL came out at 62%.

Turning to `O=C(O)C1Cc2c(Oc3ccccc3)cccc2O1` (stereo not drawn) [Compound 23], the inhibition at 100 µg/mL worked out at 27%.

Turning to `O=C(O)C1Cc2cc(-c3ccc(Cl)cc3)ccc2O1` (stereo not drawn) [Compound 24], the inhibition at 100 µg/mL stood at 56%.
